Results from US7402548B2, “Benzoxazole compounds, process for producing the same and herbicides” (Kyoyu Agri Co., Ltd., priority 2000, dated 2008).

Experiments:
[1] = system: corn; experiment: Soil treatment test for upland field; assay type: in vivo; design: key: 0 = normal development, 5 = all killed; details: 500 g/ha, 3 weeks, glass house 25° C.
Summary of the method: (§1)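 Seeds were sown in alluvial soil in pots, and a wettable powder diluted in water with 0.05% surfactant was sprayed evenly on the soil surface at 500 g/ha. Plants were kept in a glass house at about 25° C for 3 weeks, then damage was scored 0–5 against untreated controls.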

[2] = system: solgum; experiment: Soil treatment test for upland field; assay type: in vivo; design: key: 0 = normal development, 5 = all killed; details: 500 g/ha, 3 weeks, glass house 25° C.
Summary of the method: as §1

[3] = system: soybean; experiment: Soil treatment test for upland field; assay type: in vivo; design: key: 0 = normal development, 5 = all killed; details: 500 g/ha, 3 weeks, glass house 25° C.
Summary of the method: as §1

[4] = system: sugar beat; experiment: Soil treatment test for upland field; assay type: in vivo; design: key: 0 = normal development, 5 = all killed; details: 500 g/ha, 3 weeks, glass house 25° C.
Summary of the method: as §1

[5] = system: wheat; experiment: Soil treatment test for upland field; assay type: in vivo; design: key: 0 = normal development, 5 = all killed; details: 500 g/ha, 3 weeks, glass house 25° C.
Summary of the method: as §1

[6] = system: Large crabgrass; experiment: Soil treatment test for upland field; assay type: in vivo, Digitaria adscendens; design: key: 0 = normal development, 5 = all killed; details: 500 g/ha, 3 weeks, glass house 25° C.
Summary of the method: as §1

[7] = system: barnyard grass; experiment: Soil treatment test for upland field; assay type: in vivo, Eschinochloa crusgalli; design: key: 0 = normal development, 5 = all killed; details: 500 g/ha, 3 weeks, glass house 25° C.
Summary of the method: as §1

[8] = system: green foxtail; experiment: Soil treatment test for upland field; assay type: in vivo, Setaria viridis; design: key: 0 = normal development, 5 = all killed; details: 500 g/ha, 3 weeks, glass house 25° C.
Summary of the method: as §1

[9] = system: blackgrass; experiment: Soil treatment test for upland field; assay type: in vivo, Alopecurus aegualis; design: key: 0 = normal development, 5 = all killed; details: 500 g/ha, 3 weeks, glass house 25° C.
Summary of the method: as §1

[10] = system: annual bluegrass; experiment: Soil treatment test for upland field; assay type: in vivo, Poa annua; design: key: 0 = normal development, 5 = all killed; details: 500 g/ha, 3 weeks, glass house 25° C.
Summary of the method: as §1

[11] = system: common lambsquarters; experiment: Soil treatment test for upland field; assay type: in vivo, Chenopodium album; design: key: 0 = normal development, 5 = all killed; details: 500 g/ha, 3 weeks, glass house 25° C.
Summary of the method: as §1

[12] = system: livid amaranth; experiment: Soil treatment test for upland field; assay type: in vivo, Amaranthus lividus; design: key: 0 = normal development, 5 = all killed; details: 500 g/ha, 3 weeks, glass house 25° C.
Summary of the method: as §1

[13] = system: velvetleaf; experiment: Soil treatment test for upland field; assay type: in vivo, Abutilon theophrasti; design: key: 0 = normal development, 5 = all killed; details: 500 g/ha, 3 weeks, glass house 25° C.
Summary of the method: as §1

[14] = system: morning glory; experiment: Soil treatment test for upland field; assay type: in vivo, Ipomoea spps.; design: key: 0 = normal development, 5 = all killed; details: 500 g/ha, 3 weeks, glass house 25° C.
Summary of the method: as §1

[15] = system: corn; experiment: Foliar spread test for upland field; assay type: in vivo; design: key: 0 = normal development, 5 = all killed (6 ranks vs. untreated); details: foliar spray, 500 ppm, 3 weeks, glass house 25° C.
Summary of the method: (§2)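 Scores on a 0–5 scale (0 normal development, 5 all killed), relative to untreated controls, were taken 3 weeks post-treatment in a 25 °C glass house. Treatment was a uniform foliar spray at 500 ppm (0.5% surfactant) onto roughly 2-week-old soil-grown plants.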

[16] = system: cotton; experiment: Foliar spread test for upland field; assay type: in vivo; design: key: 0 = normal development, 5 = all killed (6 ranks vs. untreated); details: foliar spray, 500 ppm, 3 weeks, glass house 25° C.
Summary of the method: as §2

[17] = system: solgum; experiment: Foliar spread test for upland field; assay type: in vivo; design: key: 0 = normal development, 5 = all killed (6 ranks vs. untreated); details: foliar spray, 500 ppm, 3 weeks, glass house 25° C.
Summary of the method: as §2

[18] = system: soybean; experiment: Foliar spread test for upland field; assay type: in vivo; design: key: 0 = normal development, 5 = all killed (6 ranks vs. untreated); details: foliar spray, 500 ppm, 3 weeks, glass house 25° C.
Summary of the method: as §2

[19] = system: sugar beat; experiment: Foliar spread test for upland field; assay type: in vivo; design: key: 0 = normal development, 5 = all killed (6 ranks vs. untreated); details: foliar spray, 500 ppm, 3 weeks, glass house 25° C.
Summary of the method: as §2

[20] = system: wheat; experiment: Foliar spread test for upland field; assay type: in vivo; design: key: 0 = normal development, 5 = all killed (6 ranks vs. untreated); details: foliar spray, 500 ppm, 3 weeks, glass house 25° C.
Summary of the method: as §2

[21] = system: Large crabgrass; experiment: Foliar spread test for upland field; assay type: in vivo, Digitaria adscendens; design: key: 0 = normal development, 5 = all killed (6 ranks vs. untreated); details: foliar spray, 500 ppm, 3 weeks, glass house 25° C.
Summary of the method: as §2

[22] = system: barnyardgrjass; experiment: Foliar spread test for upland field; assay type: in vivo, Eschinochloa crusgalli; design: key: 0 = normal development, 5 = all killed (6 ranks vs. untreated); details: foliar spray, 500 ppm, 3 weeks, glass house 25° C.
Summary of the method: as §2

[23] = system: green foxtail; experiment: Foliar spread test for upland field; assay type: in vivo, Setaria viridis; design: key: 0 = normal development, 5 = all killed (6 ranks vs. untreated); details: foliar spray, 500 ppm, 3 weeks, glass house 25° C.
Summary of the method: as §2

[24] = system: blackgrass; experiment: Foliar spread test for upland field; assay type: in vivo, Alopecurus aegualis; design: key: 0 = normal development, 5 = all killed (6 ranks vs. untreated); details: foliar spray, 500 ppm, 3 weeks, glass house 25° C.
Summary of the method: as §2

[25] = system: annual bluegrass; experiment: Foliar spread test for upland field; assay type: in vivo, Poa annua; design: key: 0 = normal development, 5 = all killed (6 ranks vs. untreated); details: foliar spray, 500 ppm, 3 weeks, glass house 25° C.
Summary of the method: as §2

[26] = system: common lambsquarters; experiment: Foliar spread test for upland field; assay type: in vivo, Chenopodium album; design: key: 0 = normal development, 5 = all killed (6 ranks vs. untreated); details: foliar spray, 500 ppm, 3 weeks, glass house 25° C.
Summary of the method: as §2

[27] = system: livid amaranth; experiment: Foliar spread test for upland field; assay type: in vivo, Amaranthus lividus; design: key: 0 = normal development, 5 = all killed (6 ranks vs. untreated); details: foliar spray, 500 ppm, 3 weeks, glass house 25° C.
Summary of the method: as §2

[28] = system: velvetleaf; experiment: Foliar spread test for upland field; assay type: in vivo, Abutilon theophrasti; design: key: 0 = normal development, 5 = all killed (6 ranks vs. untreated); details: foliar spray, 500 ppm, 3 weeks, glass house 25° C.
Summary of the method: as §2

[29] = system: morning glory; experiment: Foliar spread test for upland field; assay type: in vivo, Ipomoea spps.; design: key: 0 = normal development, 5 = all killed (6 ranks vs. untreated); details: foliar spray, 500 ppm, 3 weeks, glass house 25° C.
Summary of the method: as §2

## CCC(=Cc1cccc(C(F)(F)F)c1)c1nc2cc([N+](=O)[O-])ccc2o1 [I-c-72]
[1]
  Effects Corn: 2
[2]
  Effects Solgum: 3
[3]
  Effects Soybean: 5
[4]
  Effects Sugar beat: 5
[5]
  Effects Wheat: 2
[6]
  Effects Large crabgrass: 5
[7]
  Effects Barnyardgrass: 5
[8]
  Effects Green foxtail: 5
[9]
  Effects Blackgrass: 5
[10]
  Effects Annual bluegrass: 5
[11]
  Effects Common lambsquarters: 5
[12]
  Effects Livid amaranth: 5
[13]
  Effects Velvetleaf: 5
[14]
  Effects Morning glory: 4
[15]
  Effects Corn: 3
[16]
  Effects Sotton: 4
[17]
  Effects Solgum: 3
[18]
  Effects Soybean: 5
[19]
  Effects Sugar beat: 4
[20]
  Effects Wheat: 2
[21]
  Effects Large crabgrass: 4
[22]
  Effects Barnyardgrass: 3
[23]
  Effects Green foxtail: 4
[24]
  Effects Blackgrass: 3
[25]
  Effects Annual bluegrass: 4
[26]
  Effects Common lambsquarters: 5
[27]
  Effects Livid amaranth: 5
[28]
  Effects Velvetleaf: 3
[29]
  Effects Morning glory: 5

## CCCC(=Cc1cccc(C(F)(F)F)c1)c1nc2cc(C(F)(F)F)ccc2o1 [I-c-88]
[1]
  Effects Corn: 3
[2]
  Effects Solgum: 4
[3]
  Effects Soybean: 5
[4]
  Effects Sugar beat: 5
[5]
  Effects Wheat: 2
[6]
  Effects Large crabgrass: 5
[7]
  Effects Barnyardgrass: 5
[8]
  Effects Green foxtail: 5
[9]
  Effects Blackgrass: 5
[10]
  Effects Annual bluegrass: 5
[11]
  Effects Common lambsquarters: 5
[12]
  Effects Livid amaranth: 5
[13]
  Effects Velvetleaf: 5
[14]
  Effects Morning glory: 5
[15]
  Effects Corn: 4
[16]
  Effects Sotton: 5
[17]
  Effects Solgum: 3
[18]
  Effects Soybean: 5
[19]
  Effects Sugar beat: 5
[20]
  Effects Wheat: 2
[21]
  Effects Large crabgrass: 4
[22]
  Effects Barnyardgrass: 2
[23]
  Effects Green foxtail: 5
[24]
  Effects Blackgrass: 5
[25]
  Effects Annual bluegrass: 4
[26]
  Effects Common lambsquarters: 5
[27]
  Effects Livid amaranth: 5
[28]
  Effects Velvetleaf: 4
[29]
  Effects Morning glory: 5

## CCC(=Cc1cccc(C(F)(F)F)c1)c1nc2cc(Cl)c(C)cc2o1 [I-c-131]
[1]
  Effects Corn: 1
[2]
  Effects Solgum: 3
[3]
  Effects Soybean: 1
[4]
  Effects Sugar beat: 5
[5]
  Effects Wheat: 1
[6]
  Effects Large crabgrass: 5
[7]
  Effects Barnyardgrass: 5
[8]
  Effects Green foxtail: 5
[9]
  Effects Blackgrass: 5
[10]
  Effects Annual bluegrass: 5
[11]
  Effects Common lambsquarters: 5
[12]
  Effects Livid amaranth: 5
[13]
  Effects Velvetleaf: 5
[14]
  Effects Morning glory: 5
[15]
  Effects Corn: 3
[16]
  Effects Sotton: 5
[17]
  Effects Solgum: 2
[18]
  Effects Soybean: 5
[19]
  Effects Sugar beat: 4
[20]
  Effects Wheat: 2
[21]
  Effects Large crabgrass: 4
[22]
  Effects Barnyardgrass: 3
[23]
  Effects Green foxtail: 4
[24]
  Effects Blackgrass: 4
[25]
  Effects Annual bluegrass: 4
[26]
  Effects Common lambsquarters: 5
[27]
  Effects Livid amaranth: 5
[28]
  Effects Velvetleaf: 4
[29]
  Effects Morning glory: 5

## CC(=Cc1cccc(C(F)(F)F)c1)c1nc2cc(C#N)c(F)cc2o1 [I-c-135]
[1]
  Effects Corn: 1
[2]
  Effects Solgum: 1
[3]
  Effects Soybean: 2
[4]
  Effects Sugar beat: 5
[5]
  Effects Wheat: 1
[6]
  Effects Large crabgrass: 5
[7]
  Effects Barnyardgrass: 4
[8]
  Effects Green foxtail: 5
[9]
  Effects Blackgrass: 5
[10]
  Effects Annual bluegrass: 5
[11]
  Effects Common lambsquarters: 5
[12]
  Effects Livid amaranth: 5
[13]
  Effects Velvetleaf: 5
[14]
  Effects Morning glory: 4
[15]
  Effects Corn: 2
[16]
  Effects Sotton: 4
[17]
  Effects Solgum: 3
[18]
  Effects Soybean: 4
[19]
  Effects Sugar beat: 5
[20]
  Effects Wheat: 2
[21]
  Effects Large crabgrass: 4
[22]
  Effects Barnyardgrass: 3
[23]
  Effects Green foxtail: 5
[24]
  Effects Blackgrass: 5
[25]
  Effects Annual bluegrass: 5
[26]
  Effects Common lambsquarters: 5
[27]
  Effects Livid amaranth: 5
[28]
  Effects Velvetleaf: 4
[29]
  Effects Morning glory: 5
